Data published in the NIST ThermoML archive (doi:10.1021/je300280s).
“And” between values parts separate entries of the source, which are not always exact repeats. Equal values may be shown once. ± gives the expanded uncertainty stated by the source.

What was measured:
[1] = 101.33 kPa, Liquid, Vibrating tube method
[2] = excess molar enthalpy (molar enthalpy of mixing); xn = mol fraction of the nth substance listed; details: 101.3 kPa, Liquid, Flow calorimetry
[3] = xn = mol fraction of the nth substance listed; details: 101.3 kPa, Liquid, Vibrating tube method

CC(=O)C(C)=O [2,3-butanedione]
[1]
Details	mass density [kg/m3]
288.15 K	998.09 ± 0.27
293.15 K	991.78 ± 0.27
298.15 K	985.5 ± 0.27
303.15 K	979.18 ± 0.27
308.15 K	972.83 ± 0.27
313.15 K	966.48 ± 0.27
318.15 K	960.08 ± 0.27

CC/C=C\CCO [(Z)-3-hexen-1-ol]
[1]
Details	mass density [kg/m3]
288.15 K	856.22 ± 0.68
293.15 K	852.44 ± 0.68
298.15 K	848.64 ± 0.67
308.15 K	840.99 ± 0.67
318.15 K	833.27 ± 0.66

CC/C=C\CCO [(Z)-3-hexen-1-ol] + O
Details	excess molar enthalpy, [2]	mass density, [3]
288.15 K, x1 = 0.000611	-0.00142 ± 0.000196 kcal/mol	998.763 ± 0.033 kg/m3
288.15 K, x1 = 0.000916	-0.0021 ± 0.000201 kcal/mol	998.596 ± 0.033 kg/m3
288.15 K, x1 = 0.001221	-0.00278 ± 0.000206 kcal/mol	998.432 ± 0.033 kg/m3
288.15 K, x1 = 0.001526	-0.00344 ± 0.00022 kcal/mol	998.27 ± 0.033 kg/m3
288.15 K, x1 = 0.001831	-0.0041 ± 0.000234 kcal/mol	998.106 ± 0.033 kg/m3
288.15 K, x1 = 0.002135	-0.00473 ± 0.000239 kcal/mol	997.95 ± 0.033 kg/m3
298.15 K, x1 = 0.00061	-0.000963 ± 0.000194 kcal/mol	996.68 ± 0.034 kg/m3
298.15 K, x1 = 0.000915	-0.00143 ± 0.000196 kcal/mol	996.493 ± 0.034 kg/m3
298.15 K, x1 = 0.00122	-0.00187 ± 0.000201 kcal/mol	996.319 ± 0.034 kg/m3
298.15 K, x1 = 0.001524	-0.00231 ± 0.000203 kcal/mol	996.139 ± 0.035 kg/m3
298.15 K, x1 = 0.001828	-0.00275 ± 0.000206 kcal/mol	995.963 ± 0.035 kg/m3
298.15 K, x1 = 0.002132	-0.00316 ± 0.000213 kcal/mol	995.788 ± 0.036 kg/m3
308.15 K, x1 = 0.000306	-0.00028 ± 0.000186 kcal/mol	993.834 ± 0.036 kg/m3
308.15 K, x1 = 0.000611	-0.000528 ± 0.000189 kcal/mol	993.642 ± 0.037 kg/m3
308.15 K, x1 = 0.000612	-0.000533 ± 0.000189 kcal/mol	993.637 ± 0.037 kg/m3
308.15 K, x1 = 0.000916	-0.000786 ± 0.000191 kcal/mol	993.442 ± 0.13 kg/m3
308.15 K, x1 = 0.000918	-0.000789 ± 0.000191 kcal/mol	993.441 ± 0.13 kg/m3
308.15 K, x1 = 0.001221	-0.00102 ± 0.000194 kcal/mol	993.253 ± 0.12 kg/m3
308.15 K, x1 = 0.001224	-0.00102 ± 0.000194 kcal/mol	993.253 ± 0.096 kg/m3
308.15 K, x1 = 0.001526	-0.00125 ± 0.000196 kcal/mol	993.064 ± 0.15 kg/m3
308.15 K, x1 = 0.001529	-0.00126 ± 0.000196 kcal/mol	993.059 ± 0.14 kg/m3
308.15 K, x1 = 0.001831	–	992.912 ± 0.14 kg/m3
308.15 K, x1 = 0.001835	-0.00146 ± 0.000196 kcal/mol	992.883 ± 0.13 kg/m3
318.15 K, x1 = 0.000611	-0.000141 ± 0.000186 kcal/mol	989.794 ± 0.039 kg/m3
318.15 K, x1 = 0.000612	-0.000139 ± 0.000186 kcal/mol	989.796 ± 0.039 kg/m3
318.15 K, x1 = 0.000917	-0.000198 kcal/mol and -0.000194 kcal/mol	989.578 ± 0.039 kg/m3 and 989.591 ± 0.039 kg/m3
318.15 K, x1 = 0.001222	-0.000241 ± 0.000186 kcal/mol	989.38 ± 0.04 kg/m3
318.15 K, x1 = 0.001223	-0.000239 ± 0.000186 kcal/mol	989.388 ± 0.04 kg/m3
318.15 K, x1 = 0.001527	-0.00028 ± 0.000186 kcal/mol	989.183 ± 0.04 kg/m3
318.15 K, x1 = 0.001528	-0.000284 ± 0.000186 kcal/mol	989.184 ± 0.04 kg/m3
318.15 K, x1 = 0.001832	-0.000308 ± 0.000186 kcal/mol	988.988 ± 0.04 kg/m3
318.15 K, x1 = 0.001833	-0.000311 ± 0.000186 kcal/mol	988.984 ± 0.04 kg/m3
318.15 K, x1 = 0.002137	–	988.803 ± 0.04 kg/m3 and 988.815 ± 0.04 kg/m3

CCCC(=O)OC [methyl butanoate]
[1]
Details	mass density [kg/m3]
288.15 K	903.34 ± 0.27
293.15 K	897.88 ± 0.27
298.15 K	892.38 ± 0.27
303.15 K	886.86 ± 0.27
308.15 K	881.3 ± 0.27
313.15 K	875.74 ± 0.27
318.15 K	870.14 ± 0.27

CCCOC(C)=O [propyl ethanoate]
[1]
Details	mass density [kg/m3]
288.15 K	893.2 ± 0.2
298.15 K	882.05 ± 0.2
308.15 K	870.87 ± 0.2
318.15 K	859.52 ± 0.2
